# In patent publication US12109184B2, “Personalized methods of treating cancer” (CANCER RESEARCH TECHNOLOGY LIMITED, priority 2020, dated 2024):
# Assays:
# Type in all cases: cell-based
# [1] = system: MTAP-expressing HCT116 cells; test: Cell counting during cysteine starvation, MTAP-expressing HCT116; conditions: SMOX inhibitor, PAOX inhibitor or MTOB supplementation
# Excerpt: (§1) [NT] Successfully transfected cells were selected with puromycin and grown as clonal colonies. Clones were selected based initially on MTA efflux measured by liquid chromatography mass spectrometry (LC-MS). Clones with greatest MTA efflux were selected, and methylthioadenosine phosphorylase knockout (MTAP-KO) was then confirmed by western blot. MTAP-KO HCT116 cells were transfected with pCMV-Hygro-MTAP and pCMV-Hygro-negative control vector, selected using hygromycin B, and grown as clonal colonies. Clones were selected based initially on MTA efflux measured by LC-MS. Clones with low MTA efflux were selected, then MTAP re-expression was confirmed by western blot. […] DAPI-stained cell nuclei were detected via microscopy. For experiments using spermine oxidase (SMOX) and polyamine oxidase (PAOX) inhibitors or MTOB, cells were pre-treated with stated concentrations for 16 hours in complete medium. After pre-treatment, cells were washed in PBS, and treatment was continued in complete or cysteine-free medium for stated times. After treatment was finished, cells were fixed and stained as described above. For experiments using MTA, polyamines, GPX4 and CSE inhibitors, treatment started at the same time as cysteine starvation. For experiments involving hypoxic conditions, cells were seeded in normoxic conditions and allowed to adhere for 24 hours before control and cysteine starvation medium was added and cells were immediately transferred either to a humidified cell culture incubator set to 37° C. in 20% O2 (normoxia), or a hypoxia chamber set to 37° C. in 1% O2 (hypoxia) for the stated times. Cells were fixed immediately and stained as described above.
# [2] = system: MDA-MB-231, MIAPaCa-2 and PANC-1 cells; test: Cell counting during cysteine starvation, starvation-sensitive cell lines
# Protocol: (§2) The base medium formulation contained 0.2 mM L-histidine, 0.4 mM L-isoleucine, 0.4 mM L-leucine, 0.4 mM L-lysine, 0.2 mM L-phenylalanine, 0.4 mM L-threonine, 0.08 mM L-tryptophan, 0.4 mM L-valine, 0.2 mM L-arginine, 2 mM L-glutamine, 0.2 mM L-tyrosine, 0.4 mM L-alanine, 0.3 mM L-proline, 0.15 mM L-glutamic acid, 0.1 mM L-aspartic acid, 0.2 mM L-asparagine, and 0.4 mM glycine.
# (§3) DAPI-stained cell nuclei were detected via microscopy.
# (§4) AMD1 inhibitor sardomozide/SAM486A, GPX4 inhibitor RSL3, and CSE inhibitor beta-cyano-L-alanine were used.
# (§5) For experiments using spermine oxidase (SMOX) and polyamine oxidase (PAOX) inhibitors or MTOB, cells were pre-treated with stated concentrations for 16 hours in complete medium. After pre-treatment, cells were washed in PBS, and treatment was continued in complete or cysteine-free medium for stated times. After treatment was finished, cells were fixed and stained as described above. For experiments using MTA, polyamines, GPX4 and CSE inhibitors, treatment started at the same time as cysteine starvation. For experiments involving hypoxic conditions, cells were seeded in normoxic conditions and allowed to adhere for 24 hours before control and cysteine starvation medium was added and cells were immediately transferred either to a humidified cell culture incubator set to 37° C. in 20% O2 (normoxia), or a hypoxia chamber set to 37° C. in 1% O2 (hypoxia) for the stated times. Cells were fixed immediately and stained as described above.
# [3] = system: HCT116, SW480 and MDA-MB-468 cells; test: Cell counting during cysteine starvation, starvation-resistant cell lines
# Protocol: as §2, §3, §4, §5
# [4] = system: MTAP-deleted HCT116 cells; test: Cell counting during cysteine starvation, MTAP-deleted HCT116
# Excerpt: as §1, with “microscopy. […]” for “microscopy.”
# [5] = system: SW480 and MDA-MB-231 cells; test: Cell counting, rescue by cysteine precursors during cysteine starvation; conditions: supplement at 0.2 mM
# Protocol: HCT116, SW480, MDA-MB-468, MDA-MB-231, AsPC-1, BxPC-3, CFPAC-1, MIAPaCa-2, PANC-1, Panc10.05, SW1990, U-251, LN-18, LN-229, T98G, U-343, A-172 cells were used. Cell lines were authenticated using Short Tandem Repeat (STR) profiling and tested for mycoplasma. Colorectal and breast cancer cell lines were grown in Dulbecco's Modified Eagle Medium (DMEM), pancreatic ductal adenocarcinoma (PDAC) cell lines were grown in Roswell Park Memorial institute (RPMI) 1640. All cell lines were supplemented with penicillin-streptomycin, amphotericin, 2 mM L-glutamine, and 10% fetal bovine serum (FBS). Cells were kept at 37° C. in 5% CO2 in a humidified cell culture incubator. A formulated medium lacking cysteine, cystine, methionine, and serine was used as a base for creating experimental media. The base medium formulation contained 0.2 mM L-histidine, 0.4 mM L-isoleucine, 0.4 mM L-leucine, 0.4 mM L-lysine, 0.2 mM L-phenylalanine, 0.4 mM L-threonine, 0.08 mM L-tryptophan, 0.4 mM L-valine, 0.2 mM L-arginine, 2 mM L-glutamine, 0.2 mM L-tyrosine, 0.4 mM L-alanine, 0.3 mM L-proline, 0.15 mM L-glutamic acid, 0.1 mM L-aspartic acid, 0.2 mM L-asparagine, and 0.4 mM glycine. The base medium was supplemented with 10% dialyzed FBS, penicillin-streptomycin, and amphotericin. To ensure an adequate supply of vitamin B6 (a crucial co-factor for de novo cysteine synthesis), base medium was supplemented with additional 20 μM vitamin B6. The control experimental medium was the base medium supplemented with 0.4 mM L-cysteine, 0.2 mM L-methionine, and 0.4 mM L-serine. The cysteine starvation (−Cys) experimental medium was base medium supplemented with 0.2 mM L-methionine and 0.4 mM L-serine.
# Cells were seeded at 6×10^4 cells per well into 24-well plates (triplicate wells per condition) in the relevant complete medium and adhered for a full 24-hour period. A ‘time-0’ plate was included to record the starting cell number to calculate relative cell numbers. Cells were washed once with phosphate-buffered saline (PBS) before receiving experimental medium containing or lacking the specified amino acids, metabolites, or drugs. At the stated time-points the medium was removed, cells were fixed in a 4% formalin-PBS solution. Cells were then washed and stored in PBS before staining with 4′,6-diamidino-2-phenylindole (DAPI)-Triton™ X100-PBS solution for 1 hour, followed by storage in PBS at 4° C. until further analysis. DAPI-stained cell nuclei were detected via microscopy.
# Homocysteine, cystathionine, glutathione, putrescine, spermine, spermidine, GPX4 inhibitor ML210, SMOX inhibitor MDL 72527, PAOX inhibitor diminazene aceturate, ferrostatin-1 and erastin were used. AMD1 inhibitor sardomozide/SAM486A, GPX4 inhibitor RSL3, and CSE inhibitor beta-cyano-L-alanine were used. […]
# MDA-MB-231 cells = test: Steady state metabolite measurements by LC-MS; conditions: medium lacking cysteine, supplement 0.2 mM
# Protocol: Metabolomics experiments were performed as follows. Cells were seeded into 6-well plates (5×10^5-1.5×10^6 cells/mL, depending on time-course, triplicate wells per condition) in complete medium and adhered overnight. Cells were washed with PBS, and the relevant experimental media were added for the stated times. Duplicate wells were used for cell counting. Cell counts were used to normalize the volume of lysis solvent prior to metabolite extractions (2×10^6 cells/mL). Cells were washed quickly in PBS, then ice-cold lysis solvent (methanol 50%, acetonitrile 30%, water 20%) was added, and cells were scraped on ice. Lysates were transferred to 1.5 mL tubes on ice, vortexed, then spun by centrifugation at 15,000 rpm at 4° C. for 10 minutes. Supernatants were collected and stored at -80° C. for LC-MS analysis. Prepared samples were analyzed on an LC-MS platform consisting of an […] system and an ExactiveTM mass spectrometer. A Sequant® ZIC®-HILIC column (4.6 mm×150 mm, 3.5 μm) was used to separate the metabolites with the mobile phase using A=0.1% (v/v) formic acid in water and B=0.1% (v/v) formic acid in acetonitrile. A gradient program starting at 20% of A and linearly increasing to 80% at 30 min was used followed by washing (92% of A for 5 mins) and re-equilibration (20% of A for 10 min) steps. The total run time of the method was 45 min. The LC stream was desolvated and ionized in the HESI probe. The ExactiveTM mass spectrometer was operated in full scan mode over a mass range of 70-1,200 m/z at a resolution of 50,000 with polarity switching. The LC-MS raw data was converted into mzML files by using ProteoWizard and imported to MZMine 2.10 for peak extraction and sample alignment. An in-house database including all possible ^13C and ^15N isotopic m/z values of the relevant metabolites was used for the assignment of LCMS signals. Finally the peak areas were used for comparative quantification.
# [6] = system: breast, colorectal and pancreatic cancer cell lines; test: Cell counting in complete or cysteine-free medium, cell lines not given; conditions: supplementation during cysteine starvation
# Protocol: as §2, §3, §4, §5
smiles,measurement,setting,value
CC(=O)NCC(=O)O.CC(=O)NCC(=O)O.N=C(N)c1ccc(N=NNc2ccc(C(=N)N)cc2)cc1 [diminazene aceturate],impact on cell survival during cysteine starvation,[1],little impact
same,cell death during cysteine starvation,"[2]; SMOX inhibitor 50 μM or PAOX inhibitor 10, 40, 80 μM, 16 h pre-treatment then −Cys",prevented cell death
same,cell survival and growth under polyamine treatment concurrent with cysteine starvation,"[3]; SMOX and PAOX inhibitors with spermidine or spermine, −Cys","restored HCT116, SW480, and MDA-MB-468 cell survival and growth"
same,advantage during cysteine starvation,"[3]; SMOX or PAOX inhibitor, 16 h pre-treatment then −Cys",little or no additional advantage
same,cell survival during cysteine starvation,"[4]; SMOX inhibitor, PAOX inhibitor or MTOB supplementation",rescued cell survival
N[C@@H](CCSC[C@H](N)C(=O)O)C(=O)O [cystathionine],rescue of survival/proliferation during cysteine starvation,[5],substantial rescue
same,intracellular cysteine levels,MDA-MB-231 cells,moderate increases
same,intracellular homocysteine and cystathionine levels,MDA-MB-231 cells,significantly increased
same,intracellular γ-glutamylcysteine and GSH levels,MDA-MB-231 cells,more marked increases
same,rescue from cysteine starvation-induced cell death (summary in discussion),[6],rescued from starvation-induced cell death
N#CC[C@H](N)C(=O)O [beta-cyano-L-alanine],response to CSE inhibition during cysteine starvation,"[3]; HCT116, CSE inhibitor 0.5 mM or 1 mM, 48 h",only a modest response
same,sensitivity to cysteine starvation,"[3]; SW480 and MDA-MB-468, CSE inhibitor 0.5 mM or 1 mM, 48 h",increased the sensitivity to cysteine starvation
"CCOC(=O)c1ccc(NC2CCCCC2)c(N)c1 [ferrostatin, ferrostatin-1]",proliferation during cysteine starvation,[2]; ferrostatin 1 μM,did not restore proliferation
same,cell death in response to cysteine starvation,"[2]; sensitive cells, ferrostatin 1 μM, 24 h and 72 h",prevented cell death
same,impact on response to cysteine starvation,"[3]; more resistant cells, ferrostatin 1 μM, 24 h and 72 h",little impact
same,rescue of increased sensitivity to cysteine starvation,[4]; ferrostatin,rescued
